Data as given in PubChem BioAssay AID248 (DTP/NCI, 2004).
Values joined by “and” are separate entries in the source; they are usually repeats but may differ in a detail not shown here. Equal values may be shown once. Inconclusive results and toxic doses are left out. No stated cut-off is given here; in the data, active means T/C of 150% or more; inactive means T/C below 125%.

Test system: L1210 leukemia ip in BDF1 mice, survival T/C
Test: NCI In Vivo Anticancer Drug Screen. Data for tumor model L1210 Leukemia (intraperitoneal) in B6D2F1 (BDF1) mice
Details: endpoint: mean survival time, higher = longer survival
Method in brief: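 Read-out is survival time, reported as the treated-group measurement over the vehicle-control measurement.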

[1] = dose: 100.0 mg/kg/injection, schedule: Q04DX002 (ip), vehicle: Klucel (hydroxypropylcellulose) (HPC)
[2] = dose: 200.0 mg/kg/injection, schedule: Q04DX002 (ip), vehicle: Klucel (hydroxypropylcellulose) (HPC)
[3] = dose: 400.0 mg/kg/injection, schedule: Q04DX002 (ip), vehicle: Klucel (hydroxypropylcellulose) (HPC)
[4] = dose: 50.0 mg/kg/injection, schedule: Q01DX009 (ip), vehicle: saline with Tween-80
[5] = dose: 100.0 mg/kg/injection, schedule: Q01DX009 (ip), vehicle: saline with Tween-80
[6] = dose: 100.0 mg/kg/injection, schedule: Q04DX003 (ip), vehicle: saline with Tween-80
[7] = dose: 50.0 mg/kg/injection, schedule: Q01DX009 (ip), vehicle: saline
[8] = dose: 100.0 mg/kg/injection, schedule: Q01DX001 (ip), vehicle: carboxymethylcellulose (CMC)
[9] = dose: 200.0 mg/kg/injection, schedule: Q01DX001 (ip), vehicle: carboxymethylcellulose (CMC)
[10] = dose: 400.0 mg/kg/injection, schedule: Q01DX001 (ip), vehicle: carboxymethylcellulose (CMC)

Measured: T/C

O=C(Nc1cccc(F)c1)Sc1ccc(Cl)cc1
inactive: dose: 25.0 mg/kg/injection, schedule: Q01DX009 (ip), vehicle: Klucel (hydroxypropylcellulose) (HPC) 98 % of control | dose: 50.0 mg/kg/injection, schedule: Q01DX009 (ip), vehicle: Klucel (hydroxypropylcellulose) (HPC) 108 % of control | dose: 100.0 mg/kg/injection, schedule: Q01DX009 (ip), vehicle: Klucel (hydroxypropylcellulose) (HPC) 105 % of control and 106 % of control and 112 % of control | [1] 95 % of control | [2] 98 % of control | dose: 400.0 mg/kg/injection, schedule: Q01DX009 (ip), vehicle: Klucel (hydroxypropylcellulose) (HPC) 86 % of control | [3] 109 % of control

OCCC#CCCCOC1CCCCO1 (configuration not stated)
inactive: [1] 105 % of control | [2] 90 % of control | [3] 93 % of control

NC(=S)S/C=C/C(=O)O
inactive: [4] 96 % of control | [5] 93 % of control | [6] 110 % of control | dose: 200.0 mg/kg/injection, schedule: Q01DX009 (ip), vehicle: saline with Tween-80 86 % of control | dose: 200.0 mg/kg/injection, schedule: Q04DX003 (ip), vehicle: saline with Tween-80 100 % of control | dose: 400.0 mg/kg/injection, schedule: Q04DX003 (ip), vehicle: saline with Tween-80 97 % of control

CCN(CC)Cc1cc(Nc2c3ccccc3nc3cc(Cl)ccc23)ccc1O
inactive: dose: 12.5 mg/kg/injection, schedule: Q01DX009 (ip), vehicle: saline 101 % of control | dose: 25.0 mg/kg/injection, schedule: Q01DX009 (ip), vehicle: saline 98 % of control | dose: 30.0 mg/kg/injection, schedule: Q01DX Z (ip), vehicle: methylcellulose (MC) 113 % of control | dose: 30.0 mg/kg/injection, schedule: Q01DX Z (ip), vehicle: saline 101 % of control | dose: 45.0 mg/kg/injection, schedule: Q01DX Z (ip), vehicle: methylcellulose (MC) 100 % of control | dose: 45.0 mg/kg/injection, schedule: Q01DX Z (ip), vehicle: saline 109 % of control | dose: 50.0 mg/kg/injection, schedule: Q01DX001 (ip), vehicle: carboxymethylcellulose (CMC) 102 % of control | [7] 103 % of control | dose: 67.0 mg/kg/injection, schedule: Q01DX Z (ip), vehicle: methylcellulose (MC) 101 % of control | dose: 67.0 mg/kg/injection, schedule: Q01DX Z (ip), vehicle: saline 107 % of control | [8] 102 % of control | dose: 100.0 mg/kg/injection, schedule: Q01DX Z (ip), vehicle: methylcellulose (MC) 103 % of control | dose: 100.0 mg/kg/injection, schedule: Q04DX003 (ip), vehicle: saline 91 % of control | [9] 105 % of control | [10] 102 % of control

Cc1ccccc1C(=O)Nc1ccccc1
inactive: [7] 103 % of control | dose: 100.0 mg/kg/injection, schedule: Q01DX009 (ip), vehicle: saline 100 % of control | dose: 200.0 mg/kg/injection, schedule: Q01DX009 (ip), vehicle: saline 103 % of control

CC/C(=C(\CC)c1ccc(OCCN(CC)CC)cc1)c1ccc(OCCN(CC)CC)cc1
inactive: dose: 5.0 mg/kg/injection, schedule: Q01DX001 (ip), vehicle: carboxymethylcellulose (CMC) 94 % of control | dose: 10.0 mg/kg/injection, schedule: Q01DX001 (ip), vehicle: carboxymethylcellulose (CMC) 96 % of control | dose: 40.0 mg/kg/injection, schedule: Q01DX001 (ip), vehicle: carboxymethylcellulose (CMC) 94 % of control | [8] 106 % of control

N=C(N)/C=C\C(=O)O
inactive: dose: 5.0 mg/kg/injection, schedule: Q01DX Z (ip), vehicle: carboxymethylcellulose (CMC) 93 % of control | dose: 10.0 mg/kg/injection, schedule: Q01DX Z (ip), vehicle: carboxymethylcellulose (CMC) 103 % of control | dose: 20.0 mg/kg/injection, schedule: Q01DX Z (ip), vehicle: carboxymethylcellulose (CMC) 101 % of control

COc1ccc(N(CCO)CCO)cc1
inactive: dose: 50.0 mg/kg/injection, schedule: Q01DX001 (ip), vehicle: saline 96 % of control | dose: 100.0 mg/kg/injection, schedule: Q01DX001 (ip), vehicle: saline 102 % of control | dose: 200.0 mg/kg/injection, schedule: Q01DX001 (ip), vehicle: saline 96 % of control

CCc1nc(N(C)CC(=O)O)nc(CC)c1-c1ccccc1O
inactive: dose: 50.0 mg/kg/injection, schedule: Q04DX002 (ip), vehicle: Klucel (hydroxypropylcellulose) (HPC) 111 % of control | [1] 101 % of control and 86 % of control | [2] 104 % of control | [3] 86 % of control

N#Cc1oc2ccccc2c1O
inactive: dose: 25.0 mg/kg/injection, schedule: Q01DX009 (ip), vehicle: saline with Tween-80 92 % of control | [4] 96 % of control | [5] 92 % of control | [6] 103 % of control

C#CCOC(=O)c1ccc(C(=O)OCC#C)cc1
inactive: dose: 100.0 mg/kg/injection, schedule: Q01DX009 (ip), vehicle: saline sonified 106 % of control | dose: 100.0 mg/kg/injection, schedule: Q04DX003 (ip), vehicle: Klucel (hydroxypropylcellulose) (HPC) 100 % of control | dose: 200.0 mg/kg/injection, schedule: Q01DX009 (ip), vehicle: saline sonified 96 % of control | dose: 200.0 mg/kg/injection, schedule: Q04DX003 (ip), vehicle: Klucel (hydroxypropylcellulose) (HPC) 106 % of control | dose: 400.0 mg/kg/injection, schedule: Q04DX003 (ip), vehicle: Klucel (hydroxypropylcellulose) (HPC) 90 % of control

Oc1ccc(C2=NNC(c3ccc(O)cc3)=NN2)cc1
inactive: [1] 105 % of control | [2] 97 % of control | [3] 94 % of control

O=[N+]([O-])c1cccc([N+](=O)[O-])c1Cl
inactive: [8] 114 % of control | [9] 108 % of control | [10] 108 % of control

CC([NH-])=O.CC([NH-])=O.[Cl][Pt+2][Cl]
inactive: dose: 50.0 mg/kg/injection, schedule: Q01DX009 (ip), vehicle: water 120 % of control | dose: 100.0 mg/kg/injection, schedule: Q01DX009 (ip), vehicle: water 115 % of control | dose: 100.0 mg/kg/injection, schedule: Q04DX003 (ip), vehicle: water 114 % of control | dose: 200.0 mg/kg/injection, schedule: Q04DX003 (ip), vehicle: water 110 % of control

Nc1nc(N)c2cc(N3CCCC3c3ccc(Cl)c(Cl)c3)ccc2n1 (configuration not stated)
inactive: dose: 1.56 mg/kg/injection, schedule: Q01DX009 (ip), vehicle: water 103 % of control | dose: 3.12 mg/kg/injection, schedule: Q01DX009 (ip), vehicle: water 110 % of control | dose: 6.25 mg/kg/injection, schedule: Q01DX009 (ip), vehicle: water 98 % of control

Cc1cc2c(c3oc(C4(C)OC4C4OC4C)cc(=O)c13)C(=O)c1c(O)c(C3CC(C)(N(C)C)C(O)C(C)O3)cc(C3CC(N(C)C)C(O)C(C)O3)c1C2=O (configuration not stated)
inactive: dose: 0.06 mg/kg/injection, schedule: Q01DX009 (ip), vehicle: other 118 % of control | dose: 0.06 mg/kg/injection, schedule: Q01DX009 (ip), vehicle: saline 114 % of control | dose: 0.12 mg/kg/injection, schedule: Q01DX009 (ip), vehicle: other 95 % of control | dose: 0.12 mg/kg/injection, schedule: Q01DX009 (ip), vehicle: saline 86 % of control | dose: 0.24 mg/kg/injection, schedule: Q01DX009 (ip), vehicle: saline 88 % of control | dose: 1.5 micrograms/kg/injection, schedule: Q01DX015 (ip), vehicle: saline 115 % of control | dose: 3.0 micrograms/kg/injection, schedule: Q01DX015 (ip), vehicle: saline 114 % of control | dose: 4.0 micrograms/kg/injection, schedule: Q01DX001 (ip), vehicle: carboxymethylcellulose (CMC) 110 % of control | dose: 6.0 micrograms/kg/injection, schedule: Q01DX015 (ip), vehicle: saline 117 % of control | dose: 9.0 micrograms/kg/injection, schedule: Q01DX001 (ip), vehicle: carboxymethylcellulose (CMC) 109 % of control | dose: 12.0 micrograms/kg/injection, schedule: Q01DX015 (ip), vehicle: saline 117 % of control | dose: 18.0 micrograms/kg/injection, schedule: Q01DX001 (ip), vehicle: carboxymethylcellulose (CMC) 112 % of control | dose: 25.0 micrograms/kg/injection, schedule: Q01DX Z (ip), vehicle: carboxymethylcellulose (CMC) 107 % of control | dose: 37.0 micrograms/kg/injection, schedule: Q01DX001 (ip), vehicle: carboxymethylcellulose (CMC) 112 % of control | dose: 50.0 micrograms/kg/injection, schedule: Q01DX Z (ip), vehicle: carboxymethylcellulose (CMC) 98 % of control | dose: 75.0 micrograms/kg/injection, schedule: Q01DX001 (ip), vehicle: carboxymethylcellulose (CMC) 121 % of control | dose: 96.0 micrograms/kg/injection, schedule: Q01DX015 (ip), vehicle: saline 108 % of control
